Results reported in the supplement of paper PMC4862054.

Columns and labels:
Assay in all cases: normalised response (% of control), CellTiter-Glo; higher = more viable cells (100 = DMSO, 0 = benzethonium chloride kill control)
Details in all cases: incubation time: 72 h
[1] = test system: BT-474
How it was run: (§1)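 Breast cancer cell lines (20 µl suspension) were seeded into 384-well plates holding compound at 5 concentrations in 10-fold steps over a compound-specific 10,000-fold range, then incubated 72 h. CellTox Green fluorescence (485/520 nm) was read first, then CellTiter-Glo luminescence after 10 min at room temperature. Each plate was normalised to 0.1 % DMSO (100) and a positive kill control (0). Each value is the normalised signal at a single concentration of the series.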

[2] = test system: BT-549
How it was run: as §1

[3] = test system: CAL-120
How it was run: as §1

[4] = test system: CAL-148
How it was run: as §1

[5] = test system: CAL-51
How it was run: as §1

[6] = test system: CAL-85-1
How it was run: as §1

[7] = test system: DU-4475
How it was run: as §1

[8] = test system: HCC1143
How it was run: as §1

[9] = test system: HCC1599
How it was run: as §1

[10] = test system: HCC1937
How it was run: as §1

[11] = test system: HDQ-P1
How it was run: as §1

[12] = test system: Hs578T
How it was run: as §1

[13] = test system: MCF-10A
How it was run: as §1

[14] = test system: MDA-MB-231
How it was run: as §1

[15] = test system: MDA-MB-436
How it was run: as §1

[16] = test system: MDA-MB-453
How it was run: as §1

[17] = test system: MDA-MB-468
How it was run: as §1

[18] = test system: MFM-223
How it was run: as §1

[19] = test system: SK-BR-3
How it was run: as §1

SMILES	normalised response [1] [%]	normalised response [2] [%]	normalised response [3] [%]	normalised response [4] [%]	normalised response [5] [%]	normalised response [6] [%]	normalised response [7] [%]	normalised response [8] [%]	normalised response [9] [%]	normalised response [10] [%]	normalised response [11] [%]	normalised response [12] [%]	normalised response [13] [%]	normalised response [14] [%]	normalised response [15] [%]	normalised response [16] [%]	normalised response [17] [%]	normalised response [18] [%]	normalised response [19] [%]
C=CCN(/C=C1/C(=O)O[C@H](COC)[C@@]2(C)C1=C(O)C(=O)C1=C2[C@H](OC(C)=O)C[C@]2(C)C(=O)CC[C@@H]12)CC=C [Sonolisib] (10 nM)	112	102	101	107	108	102	106	107	95.1	106	94.4	97.9	105	102	111	104	101	109	123
CC(C)(C)NC(=O)[C@H]1CC[C@H]2[C@@H]3CC[C@H]4NC(=O)C=C[C@]4(C)[C@H]3CC[C@]12C [Finasteride] (10 nM)	98.3	96.4	99.5	101	80.6	98.7	102	108	114	103	97.3	101	104	104	95.9	113	106	97.8	121
Cc1cn(-c2cc(NC(=O)c3ccc(C)c(Nc4nccc(-c5cccnc5)n4)c3)cc(C(F)(F)F)c2)cn1 [Nilotinib] (10 nM)	100	103	88.6	92.7	85.8	100	106	96.5	104	96.5	93.5	94	104	91.2	94.1	103	98.8	97.3	105
CCNC(=O)c1noc(-c2cc(C(C)C)c(O)cc2O)c1-c1ccc(CN2CCOCC2)cc1 [NVP-AUY922] (1 nM)	114	97.2	106	104	106	105	105	104	108	102	104	101	106	103	104	113	107	104	106
CN(C)C(=N)NC(=N)N [Metformin] (10 nM)	92.3	98.3	103	97.7	86.8	99.6	87.8	98	93.1	90.6	97.7	93.2	77	96.5	91.7	80.5	89.4	88.1	76.9
CN[C@@H](C)C(=O)N[C@H]1CN(C(=O)CC(C)C)CC[C@H]2CC[C@@H](C(=O)NC(c3ccccc3)c3ccccc3)N2C1=O [AT-406] (10 nM)	94.3	66.1	96.7	109	126	97.8	99.9	95.5	99.7	104	102	99.5	105	95.5	97.5	89.3	103	105	110
CC(C)(C)c1nc(-c2cccc(NS(=O)(=O)c3c(F)cccc3F)c2F)c(-c2ccnc(N)n2)s1 [Dabrafenib] (0.25 nM)	98.9	109	98.9	116	109	103	101	108	98.8	106	104	101	109	104	101	104	99.7	104	108
CN(Cc1cnc2nc(N)nc(N)c2n1)c1ccc(C(=O)N[C@@H](CCC(=O)O)C(=O)O)cc1 [Methotrexate] (5 nM)	100	117	99.5	105	103	101	105	107	88.1	107	102	109	107	109	97.6	116	108	108	118
CNC(=O)c1ccccc1Sc1ccc2c(/C=C/c3ccccn3)n[nH]c2c1 [Axitinib] (10 nM)	107	107	96.7	101	121	102	102	102	111	100	103	97.7	103	107	103	107	96.8	105	106
Cc1cc(Nc2nc(N[C@@H](C)c3ncc(F)cn3)ncc2Cl)[nH]n1 [AZD1480] (1 nM)	102	92.5	98	89.7	113	98.4	102	95.7	102	96.4	96.6	99.7	97.1	99.7	101	103	98.1	95.1	118
Cc1nc(C(=O)NCC(=O)O)c(O)c2ccc(Oc3ccccc3)cc12 [FG-4592] (10 nM)	104	99.1	100	117	90.5	101	101	105	104	105	103	103	111	101	95	109	97.3	107	109
C=CCN(/C=C1/C(=O)O[C@H](COC)[C@@]2(C)C1=C(O)C(=O)C1=C2[C@H](OC(C)=O)C[C@]2(C)C(=O)CC[C@@H]12)CC=C [Sonolisib] (1 nM)	107	103	107	110	75.2	103	103	102	116	101	95.6	105	108	109	102	119	104	107	109
Cc1nc(C(=O)NCC(=O)O)c(O)c2ccc(Oc3ccccc3)cc12 [FG-4592] (1 nM)	94.7	104	98.5	102	89.8	98.9	103	108	100	102	106	103	111	101	96.2	109	98.4	102	111
Cn1cc(C2=C(c3cn(C4CCN(Cc5ccccn5)CC4)c4ccccc34)C(=O)NC2=O)c2ccccc21 [Enzastaurin] (10 nM)	99.6	92.4	92.7	96.2	92.2	107	103	103	96.3	95.5	99.4	100	106	104	107	107	96.5	104	104
CCn1c(C(=O)N(C2CC2)C2CC2)cc2c3c(ncn3C)c(Nc3cc(C)n(C)n3)nc21 (1 nM)	92.6	103	94.4	97.4	135	105	99.7	100	96.7	105	99.6	98	102	106	97.9	89.3	100	102	102
O=[N+]([O-])c1ccc2c(c1)S(=O)(=O)C=C2 [Stattic] (5 nM)	98.6	105	95.3	103	102	95.5	106	101	114	94.6	98.8	104	111	96.2	99.5	106	99.8	101	99.3
CC(C)C[C@H](NC(=O)[C@@H](COC(C)(C)C)NC(=O)[C@H](Cc1ccc(O)cc1)NC(=O)[C@H](CO)NC(=O)[C@H](Cc1c[nH]c2ccccc12)NC(=O)[C@H](Cc1cnc[nH]1)NC(=O)[C@@H]1CCC(=O)N1)C(=O)N[C@@H](CCCNC(=N)N)C(=O)N1CCC[C@H]1C(=O)NNC(N)=O [Goserelin] (10 nM)	98	99.4	101	94.6	92.5	93.8	100	99.2	98.5	93.7	101	99.5	102	94	98	102	96.1	94.2	119
CCN(CC)CCCC(C)Nc1ccnc2cc(Cl)ccc12 (stereo unspecified) [Chloroquine] (100 nM)	99.9	103	98.8	88.6	71.1	94.5	92.9	103	46	103	102	102	93.7	96.7	103	91.5	91.7	100	88.3
CC(O)(CS(=O)(=O)c1ccc(F)cc1)C(=O)Nc1ccc(C#N)c(C(F)(F)F)c1 (stereo unspecified) [Bicalutamide] (10 nM)	107	99.5	100	113	105	106	104	105	106	98.6	105	99	109	105	111	100	102	111	130
